Test results from patent US20260317324A1, “BIFUNCTIONAL COMPOUNDS FOR DEGRADING BRAF VIA UBIQUITIN PROTEOSOME PATHWAY” (Nurix Therapeutics, Inc., priority 2023, published 2026).

Tests used:
Format in all cases: cell-based
BRAF G466V = biological target: T1, BRAF G466V (Homo sapiens, UniProt P15056, G466V); test: BRAF HiBiT degradation assay, C-terminal HiBiT-tagged BRAF G466V overexpressed in HCT-116 BRAF−/− cells (clone 8), Nano-Glo HiBiT Lytic assay
T1 construct: Horizon Discovery (HCT-116 BRAF−/− cells); host or cells: HCT-116 BRAF−/− cells, clone 8, lentiviral transduction
T1 sequence (P15056 whole entry G466V): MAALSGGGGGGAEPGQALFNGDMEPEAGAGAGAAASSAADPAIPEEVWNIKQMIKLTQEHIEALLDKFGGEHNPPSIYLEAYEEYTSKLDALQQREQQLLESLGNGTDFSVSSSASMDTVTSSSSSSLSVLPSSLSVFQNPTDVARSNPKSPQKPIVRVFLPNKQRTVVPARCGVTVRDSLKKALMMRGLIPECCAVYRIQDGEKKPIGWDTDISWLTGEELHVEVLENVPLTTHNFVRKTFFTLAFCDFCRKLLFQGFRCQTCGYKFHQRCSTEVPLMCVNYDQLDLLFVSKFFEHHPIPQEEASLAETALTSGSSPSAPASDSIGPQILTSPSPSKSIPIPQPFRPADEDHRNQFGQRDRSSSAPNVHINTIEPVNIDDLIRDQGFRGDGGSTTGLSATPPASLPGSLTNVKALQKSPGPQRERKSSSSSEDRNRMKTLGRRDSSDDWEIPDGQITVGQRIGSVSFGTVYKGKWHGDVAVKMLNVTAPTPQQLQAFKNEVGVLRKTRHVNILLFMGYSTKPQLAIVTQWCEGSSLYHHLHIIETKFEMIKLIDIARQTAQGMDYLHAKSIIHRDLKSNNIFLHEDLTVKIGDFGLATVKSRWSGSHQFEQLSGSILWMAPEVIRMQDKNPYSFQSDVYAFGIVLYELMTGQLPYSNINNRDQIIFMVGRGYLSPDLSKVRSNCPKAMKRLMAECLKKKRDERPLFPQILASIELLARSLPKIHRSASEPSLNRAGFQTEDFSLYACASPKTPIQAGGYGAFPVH
How it was run: (§1)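 We quantified degradation of the C-terminally HiBiT-tagged, overexpressed mutant by lytic luminescence, normalizing to DMSO-treated cells with wild-type HCT-116 background subtracted. Dose series ran from 1 μM to 0.01 nM at 0.2% DMSO. Observed Dmax is % degraded at maximal effect.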

BRAF D594G = biological target: T2, BRAF D594G (Homo sapiens, UniProt P15056, D594G); test: BRAF HiBiT degradation assay, C-terminal HiBiT-tagged BRAF D594G overexpressed in HCT-116 BRAF−/− cells (clone 63), Nano-Glo HiBiT Lytic assay
T2 construct: Horizon Discovery (HCT-116 BRAF−/− cells); host or cells: HCT-116 BRAF−/− cells, clone 63, lentiviral transduction
T2 sequence (P15056 whole entry D594G): as the sequence (P15056 whole entry G466V) above, with V466G, D594G counted along it
How it was run: as §1

BRAF V600E = biological target: T3, BRAF V600E (Homo sapiens, UniProt P15056, V600E); test: BRAF HiBiT degradation assay, C-terminal HiBiT-tagged BRAF V600E A375 cells (clone 1F10), Nano-Glo HiBiT Lytic assay; conditions: for Dmax: A-375
T3 construct: endogenous C-terminal HiBiT fusion tag on BRAF V600E allele; endogenous in cells; host or cells: A375 clone 1F10 (CRISPR-Cas9 knock-in of the HiBiT tag; parental A375 from ATCC)
T3 sequence (P15056 whole entry V600E, the tested form may be a part): as the sequence (P15056 whole entry G466V) above, with V466G, V600E counted along it
How it was run: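 Steps: seed HiBiT-tagged A375 clone 1F10 cells; incubate 24 h, 37 °C, 5% CO2; add compound (11 half-log points from 1 μM, 0.2% DMSO); lyse with HiBiT detection reagent plus LgBiT for 10 min; read luminescence; fit % protein remaining against concentration.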

BRAF G469A = biological target: T4, BRAF G469A (Homo sapiens, UniProt P15056, G469A); test: BRAF HiBiT degradation assay, C-terminal HiBiT-tagged BRAF G469A overexpressed in HCT-116 BRAF−/− cells (clone 34), Nano-Glo HiBiT Lytic assay
T4 construct: Horizon Discovery (HCT-116 BRAF−/− cells); host or cells: HCT-116 BRAF−/− cells, clone 34, lentiviral transduction
T4 sequence (P15056 whole entry G469A): as the sequence (P15056 whole entry G466V) above, with V466G, G469A counted along it
How it was run: as §1

[1] = BRAF G466V (Class 3), HCT-116 BRAF−/− cells, DC50 at 50% degradation
[2] = BRAF G466V (Class 3), HCT-116 BRAF−/− cells, observed Dmax relative to DMSO control
[3] = BRAF D594G (Class 3), HCT-116 BRAF−/− cells, DC50 at 50% degradation
[4] = BRAF D594G (Class 3), HCT-116 BRAF−/− cells, observed Dmax relative to DMSO control
[5] = A375 (BRAF V600E, Class 1), DC50 at 50% degradation
[6] = A375 (BRAF V600E, Class 1), observed Dmax, % protein degraded relative to DMSO control
[7] = BRAF G469A (Class 2), HCT-116 BRAF−/− cells, DC50 at 50% degradation
[8] = BRAF G469A (Class 2), HCT-116 BRAF−/− cells, observed Dmax relative to DMSO control
[9] = BRAF G466V, DC50 at 50%: fitted conc. at Y=50
[10] = HCT-116, BRAF G466V, percentage protein degraded at maximal compound effect relative to DMSO
[11] = BRAF D594G, DC50 at 50%: fitted conc. at Y=50
[12] = HCT-116, BRAF D594G, percentage protein degraded at maximal compound effect relative to DMSO
[13] = A375 (BRAF V600E), DC50 at 50%: fitted conc. at Y=50
[14] = A375 (BRAF V600E), percentage protein degraded at maximal compound effect relative to DMSO
[15] = Class 2, BRAF G469A, DC50 at 50%: fitted conc. at Y=50
[16] = HCT-116, Class 2, BRAF G469A, percentage protein degraded at maximal compound effect relative to DMSO

DC50 (BRAF G466V; [1]) [nM]	Dmax (BRAF G466V; [2]) [%]	DC50 (BRAF D594G; [3]) [nM]	Dmax (BRAF D594G; [4]) [%]	DC50 (BRAF V600E; [5]) [nM]	Dmax (BRAF V600E; [6]) [%]	DC50 (BRAF G469A; [7]) [nM]	Dmax (BRAF G469A; [8]) [%]	DC50 (BRAF G466V; [9]) [nM]	Dmax (BRAF G466V; [10]) [%]	DC50 (BRAF D594G; [11]) [nM]	Dmax (BRAF D594G; [12]) [%]	DC50 (BRAF V600E; [13]) [nM]	Dmax (BRAF V600E; [14]) [%]	DC50 (BRAF G469A; [15]) [nM]	Dmax (BRAF G469A; [16]) [%]	Structure (SMILES)
< 10	> 70	< 10	30 to 70	< 10	> 70	10 to 50	30 to 70									O=C1CCC(c2ccc(N3CCC(CN4CCN(c5ccc(-n6cc(-c7cc(Cl)cc(NS(=O)(=O)N8CC(F)C8)c7F)c(-c7ccncc7)n6)c(F)c5)CC4)CC3)nc2)C(=O)N1 (racemic) [Compound 337, Rac-N-{5-chloro-3-[1-(4-{4-[(1-{5-[(3R)-2,6-dioxopiperidin-3-yl]pyridin-2-yl}piperidin-4-yl)methyl]piperazin-1-yl}-2-fluorophenyl)-3-(pyridin-4-yl)-1H-pyrazol-4-yl]-2-fluorophenyl}-3-fluoroazetidine-1-sulfonamide]
< 10	> 70	< 10	30 to 70	< 10	> 70	10 to 50	30 to 70									CCC(C)S(=O)(=O)Nc1cc(Cl)cc(-c2cn(-c3ccc(N4CCN(CC5CCN(c6ccc([C@H]7CCC(=O)NC7=O)cc6)CC5)CC4)cc3)nc2-c2ccncc2)c1F (mixture of isomers) [Compound 330, (2RS)—N-{5-chloro-3-[1-(4-{4-[(1-{4-[(3R)-2,6-dioxopiperidin-3-yl]phenyl}piperidin-4-yl)methyl]piperazin-1-yl}phenyl)-3-(pyridin-4-yl)-1H-pyrazol-4-yl]-2-fluorophenyl}butane-2-sulfonamide]
< 10	30 to 70	< 10	30 to 70	< 10	> 70	50 to 500	30 to 70									C[C@@H]1CN(c2ccc(-n3cc(-c4cc(Cl)cc(NS(=O)(=O)N5CCCC5)c4F)c(-c4ccncc4)n3)nc2)CCN1CC1CCN(c2ccc(N3CCC(=O)NC3=O)cc2)CC1 [Compound 324, N-[5-chloro-3-(1-{5-[(3R)-4-({1-[4-(2,4-dioxo-1,3-diazinan-1-yl)phenyl]piperidin-4-yl}methyl)-3-methylpiperazin-1-yl]pyridin-2-yl}-3-(pyridin-4-yl)-1H-pyrazol-4-yl)-2-fluorophenyl]pyrrolidine-1-sulfonamide]
10 to 50	30 to 70	< 10	30 to 70	< 10	> 70	> 500	30 to 70									O=C1CCN(c2ccc(N3CCC(CN4CCN(c5cnc(-n6cc(-c7cc(Cl)cc(NS(=O)(=O)N8CCCC8)c7F)c(-c7ccncc7)n6)nc5)CC4)CC3)cc2)C(=O)N1 [Compound 358, N-[5-chloro-3-(1-{5-[4-({1-[4-(2,4-dioxo-1,3-diazinan-1-yl)phenyl]piperidin-4-yl}methyl)piperazin-1-yl]pyrimidin-2-yl}-3-(pyridin-4-yl)-1H-pyrazol-4-yl)-2-fluorophenyl]pyrrolidine-1-sulfonamide]

Further lines, the molecule ahead of its results:

Structure (SMILES)	DC50 (BRAF G466V; [1]) [nM]	Dmax (BRAF G466V; [2]) [%]	DC50 (BRAF D594G; [3]) [nM]	Dmax (BRAF D594G; [4]) [%]	DC50 (BRAF V600E; [5]) [nM]	Dmax (BRAF V600E; [6]) [%]	DC50 (BRAF G469A; [7]) [nM]	Dmax (BRAF G469A; [8]) [%]	DC50 (BRAF G466V; [9]) [nM]	Dmax (BRAF G466V; [10]) [%]	DC50 (BRAF D594G; [11]) [nM]	Dmax (BRAF D594G; [12]) [%]	DC50 (BRAF V600E; [13]) [nM]	Dmax (BRAF V600E; [14]) [%]	DC50 (BRAF G469A; [15]) [nM]	Dmax (BRAF G469A; [16]) [%]
CCCS(=O)(=O)Nc1cc(Cl)cc(-c2cn(-c3ccc(N4CCN(CC5CCN(c6ccc(N7CCC(=O)NC7=O)cc6)CC5)[C@H](C)C4)cc3)nc2-c2ccncc2)c1F [Compound 277, N-[5-chloro-3-(1-{4-[(3R)-4-({1-[4-(2,4-dioxo-1,3-diazinan-1-yl)phenyl]piperidin-4-yl}methyl)-3-methylpiperazin-1-yl]phenyl}-3-(pyridin-4-yl)-1H-pyrazol-4-yl)-2-fluorophenyl]propane-1-sulfonamide]	< 10	> 70	50 to 500	30 to 70	< 10	> 70	10 to 50	30 to 70								
O=C1CC[C@H](c2ccc(N3CCC(CN4CCN(c5ccc(-n6cc(-c7cc(Cl)cc(NS(=O)(=O)N8CCCC8)c7F)c(-c7ccncc7)n6)cc5)CC4)CC3)cc2)C(=O)N1 [Compound 282, N-{5-chloro-3-[1-(4-{4-[(1-{4-[(3R)-2,6-dioxopiperidin-3-yl]phenyl}piperidin-4-yl)methyl]piperazin-1-yl}phenyl)-3-(pyridin-4-yl)-1H-pyrazol-4-yl]-2-fluorophenyl}pyrrolidine-1-sulfonamide]	< 10	> 70	< 10	30 to 70	< 10	> 70	< 10	30 to 70								
CCCS(=O)(=O)Nc1cccc(-c2nc(C3CCN(C(=O)C4CCN(C(=O)CC5CCN(c6ccc(C7CCC(=O)NC7=O)cn6)CC5)CC4)CC3)sc2-c2ccnc(N)n2)c1F (racemic) [Compound 203, Rac-N-{3-[5-(2-aminopyrimidin-4-yl)-2-(1-{1-[2-(1-{5-[(3R)-2,6-dioxopiperidin-3-yl]pyridin-2-yl}piperidin-4-yl)acetyl]piperidine-4-carbonyl}piperidin-4-yl)-1,3-thiazol-4-yl]-2-fluorophenyl}propane-1-sulfonamide]									< 10	> 70	< 10	30 to 70	< 10	> 70	> 500	30 to 70
CCCS(=O)(=O)Nc1cccc(-c2cn(-c3ccc(N4CCN(CC5CCN(c6ccc([C@H]7CCC(=O)NC7=O)cc6)CC5)CC4)cc3)nc2-c2ccncc2)c1F [Compound 16, N-{3-[1-(4-{4-[(1-{4-[(3R)-2,6-dioxopiperidin-3-yl]phenyl}piperidin-4-yl)methyl]piperazin-1-yl}phenyl)-3-(pyridin-4-yl)-1H-pyrazol-4-yl]-2-fluorophenyl}propane-1-sulfonamide]									10 to 50	> 70	< 10	30 to 70	10 to 50	> 70	50 to 500	30 to 70
CCCS(=O)(=O)Nc1cccc(-c2nc(C(C)(C)C)sc2-c2ccnc(NC3CC4(C3)CN(C(=O)CN3CCC5(CC3)CN(c3ccc6c(c3)C(=O)N(C3CCC(=O)NC3=O)C6=O)C5)C4)n2)c1F (racemic) [Compound 152, Rac-N-(3-{2-tert-butyl-5-[2-({2-[2-(2-{2-[(3R)-2,6-dioxopiperidin-3-yl]-1,3-dioxo-2,3-dihydro-1H-isoindol-5-yl}-2,7-diazaspiro[3.5]nonan-7-yl)acetyl]-2-azaspiro[3.3]heptan-6-yl}amino)pyrimidin-4-yl]-1,3-thiazol-4-yl}-2-fluorophenyl)propane-1-sulfonamide]									> 500	< 30	> 500	30 to 70	10 to 50	30 to 70	> 500	< 30
CCCS(=O)(=O)Nc1cccc(-c2nc(C3CCN(C(=O)CN4CCC5(CC4)CN(c4ccc6c(c4)C(=O)N(C4CCC(=O)NC4=O)C6=O)C5)CC3)sc2-c2ccnc(NC)n2)c1F (racemic) [Compound 219, Rac-N-[3-(2-{1-[2-(2-{2-[(3R)-2,6-dioxopiperidin-3-yl]-1,3-dioxo-2,3-dihydro-1H-isoindol-5-yl}-2,7-diazaspiro[3.5]nonan-7-yl)acetyl]piperidin-4-yl}-5-[2-(methylamino)pyrimidin-4-yl]-1,3-thiazol-4-yl)-2-fluorophenyl]propane-1-sulfonamide]									< 10	30 to 70	> 500	30 to 70	< 10	> 70	> 500	30 to 70
